Results taken from BindingDB's records for doi:10.1021/jm030438k (Harvard Medical School, 2004).

Assays:
[1] = target: Dihydrofolate reductase (Homo sapiens) (UniProt P00374); test: Inhibitory concentration against dihydrofolate reductace enzyme of humans
Dihydrofolate reductase = target: T1, Dihydrofolate reductase (Homo sapiens, UniProt P00374); test: Inhibitory concentration against dihydrofolate reductase of rat liver
T1 sequence (P00374 whole entry): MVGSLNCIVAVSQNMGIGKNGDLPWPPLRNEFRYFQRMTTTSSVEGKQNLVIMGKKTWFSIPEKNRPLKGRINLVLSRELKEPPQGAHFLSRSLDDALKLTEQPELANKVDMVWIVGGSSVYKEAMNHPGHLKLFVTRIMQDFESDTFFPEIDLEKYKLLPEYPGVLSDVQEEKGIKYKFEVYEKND

| Compound | IC50 [1] [nM] | IC50 (Dihydrofolate reductase) [nM] |
| --- | --- | --- |
| Cc1ccc(Cl)cc1Cc1cnc2nc(N)nc(N)c2c1C [6-(5-Chloro-2-methyl-benzyl)-5-methyl-pyrido[2,3-d]pyrimidine-2,4-diamine] | 2.8 | – |
| COc1cc(Cc2cnc3nc(N)nc(N)c3c2C)cc(OC)c1 [6-(3,5-Dimethoxy-benzyl)-5-methyl-pyrido[2,3-d]pyrimidine-2,4-diamine] | – | 1.5 |
